{"source": "patent US20240366633A1", "about": "“METHODS FOR TREATMENT OF OPIOID USE DISORDER WITH CANNABINOIDS” (ANANDA SCIENTIFIC, INC, priority 2021, published 2024)", "key": {"[1]": {"test": "Chemical characteristics of Composition A′, concentrated and diluted forms", "type": "physicochemical", "protocol": "Several tests were conducted to determine the chemical characteristics of composition Composition A′, both in concentrated and diluted forms. […] All liquid nanodomain droplets range in size from 5 to 20 nm. The pH of both the concentrate and diluted formulations is between 6.0 and 7.5."}, "[2]": {"settings": "rat, 120 mg/kg dose; cited from earlier work"}, "CB2 receptors": {"target": "CB2 receptors (Homo sapiens, UniProt P34972)", "sequence (P34972 whole entry)": "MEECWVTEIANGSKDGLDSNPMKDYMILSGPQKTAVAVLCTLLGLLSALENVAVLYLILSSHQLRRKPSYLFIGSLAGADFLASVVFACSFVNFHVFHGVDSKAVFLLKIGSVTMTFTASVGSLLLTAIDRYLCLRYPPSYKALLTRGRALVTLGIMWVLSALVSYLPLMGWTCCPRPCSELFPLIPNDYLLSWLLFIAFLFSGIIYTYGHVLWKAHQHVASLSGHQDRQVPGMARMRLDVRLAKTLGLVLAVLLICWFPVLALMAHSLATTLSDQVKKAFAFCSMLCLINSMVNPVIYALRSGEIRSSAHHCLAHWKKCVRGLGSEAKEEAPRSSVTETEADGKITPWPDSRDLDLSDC", "settings": "cited from earlier work"}, "[3]": {"settings": "healthy volunteers and subjects with various medical conditions, 10 mg to 6000 mg, single and multiple doses; cited from earlier work"}}}
{"compound": "C=C(C)[C@@H]1CCC(C)=C[C@H]1c1c(O)cc(CCCCC)cc1O", "note": "[CBD, 2-(1R,6R)-3-methyl-6-prop-1-en-2-ylcyclohex-2-en-1-yl-5-pentylbenzene-1,3-diol]", "values": [{"measurement": "Log P", "setting": "[1]", "result": "about 6"}, {"measurement": "Association of CBD with formulation phases during storage", "setting": "[1]; both concentrated and diluted forms", "result": "remained associated with the surfactant and lipid phases"}, {"measurement": "T1/2", "setting": "[2]", "result": "4 to 5", "unit": "h"}, {"measurement": "Affinity for CB2 receptors", "setting": "CB2 receptors", "result": "low affinity"}, {"measurement": "Safety", "setting": "[3]", "result": "safe"}]}
